One assay has as its system Na^+, K^+ -ATPase. Particulars: reported in literature / other filings; cited from earlier work.
Assay [1] deals with T1, purified Na^+, K^+ -ATPase (Canis lupus familiaris, UniProt P50997).
T1 construct: from tissue
As to the kind of experiment: inhibition of the activity of the purified Na^+, K^+ -ATPase (hydrolysis of ^32 P-ATP). It counts as biochemical. An excerpt:
To test the affinity for the receptor site of the Na^+, K^+ -ATPase and the inhibition of the activity of the enzyme, the following tests were used:
b) inhibition of the activity of the purified Na^+, K^+ -ATPase measured as % of hydrolysis of ^32 P-ATP in the presence and in the absence of the tested compound (Doucet A. et al., Am. J. Physiol., 1986, 251, F851)

The test system of assay [2] is spontaneous hypertensive rats (MHS). As to the kind of experiment: effect of 5 week-treatment in spontaneous hypertensive rats (MHS) on the development of hypertension (SBP and HR, tail cuff method). It counts as in vivo, rat. Particulars: 5 weeks, in Methocel 0.5% w/v; for SBP: controls 170 +/- 5.5; for HR: controls 378 +/- 12.0. How it is done:
Systolic blood pressure (SBP) and hear rate (HR) were measured, by the tail cuff method, in young prehypertensive male rats (MHS or SHR) strains before the development of hypertension (4 weeks of age) for recording the basal values of SBP. Groups of 7 rats were formed and subdivided in control and treated groups.
The compound, suspended in Methocel 0.5% (w/v), was orally given daily for at least 5 weeks to the treated groups. The control group received only Methocel.
SBP and HR were measured weekly 6 and 24 hrs after treatment. After 5 weeks of treatment, when hypertension was fully developed in the control group (9 weeks of age), washout was started for at least one week, to verify whether the treatment maintained blood pressure low or reestablished the basal values.
(Takeda K. et al., Japan J. Pharmacol., 1979, 29, 171; Takeda K. et al. Japan J. Pharmacol., 1982, 32, 283; Richer C. et al. Eur. J. Pharmacol, 1978, 47,393).

Assay [3] concerns the target Na^+, K^+ -ATPase receptor. Briefly: displacement of the specific ^3 H-ouabain binding from the Na^+, K^+ -ATPase receptor. The settings on record: ^3 H-ouabain displacement, purified Na^+.
Source text: a) displacement of the specific ^3 H-ouabain binding from the Na^+, K^+ -ATPase receptor purified according to Jorghensen (Jorghensen P., BBA, 1974, 356, 36) and Erdmann (Erdmann E. et al., Arzneim. Forsh., 1984, 34, 1314);
The conditions of assay [4]: reported in literature; cited from earlier work.

Like-named read-outs stand apart in the source and are kept apart here.

Turning to `C[C@]12CC[C@H](O)C[C@H]1CC[C@@H]1[C@@H]2CC[C@]2(C)C(=NNC(=N)N)CC[C@]12O` [17-guanidinoimino-5β-androstane-3β,14β-diol], the “inhibition of Na^+, K^+ -ATPase” value with Na^+, K^+ -ATPase is reported as “weak inhibitors of Na^+, K^+ -ATPase”.
`C[C@]12CC[C@H](O)C[C@H]1CC[C@@H]1[C@@H]2CC[C@]2(C)[C@@H](CNOCCN)CC[C@]12O` [Comp. I-aj, 17β-(2-Aminoethoxyamino)methyl-5β-androstane-3β,14β-diol]: the IC50 (as a rule, the concentration at which inhibition is half-maximal) in assay [1] was 1 µM. In assay [2] (0.1 mg/Kg/os daily), the SBP is 150 +/- 4.1 mm Hg and the HR is listed as 372 +/- 11.7 beats/min. Moreover, the “Binding ^3 H-Ouab. Displacement (-log IC50)” value in assay [3] is given as 7.2.
For the compound `CN(C)CCONC[C@H]1CC[C@]2(O)[C@@H]3CC[C@@H]4C[C@@H](O)CC[C@]4(C)[C@H]3CC[C@]12C` [Comp. I-am, 17β-(2-Dimethylaminoethoxyamino)methyl-5β-androstane-3β,14β-diol], the IC50 in assay [1] (hydrolysis of ^32 P-ATP, purified Na^+, K^+ -ATPase, read-out: Inhibitory Activity (-log IC50) (converted)) was 50.1 µM. For the same compound, in assay [2] (1 mg/Kg/os daily), the SBP is reported as 152 +/- 5.3 mm Hg and the HR is 365 +/- 10.1 beats/min. In assay [2] (10 mg/Kg/os daily), the SBP was 149 +/- 4.5 mm Hg and the HR is reported as 370 +/- 14.7 beats/min. In addition, in assay [3], the “Binding ^3 H-Ouab. Displacement (-log IC50)” value was determined as 6.1.
For the compound `C[C@]12CC[C@H](O)C[C@H]1CC[C@@H]1[C@@H]2CC[C@]2(C)[C@@H](C=NNC(=N)N)CC[C@]12O` [17β-guanidinoiminomethyl-5β-androstane-3,β,14β-diol], the “inhibition of Na^+, K^+ -ATPase” value in the assay on Na^+, K^+ -ATPase is listed as “weak inhibitors of Na^+, K^+ -ATPase”. In addition, the positive inotropic activity entry in assay [4] is “weak positive inotropic agents”.
Turning to `CN(C)CCONC[C@H]1CC[C@]2(O)[C@@H]3CC[C@@H]4C[C@@H](OCCCN)CC[C@]4(C)[C@H]3CC[C@]12C` [Comp. I-bb, 3β-(3-Aminopropoxy)-17β-(2-dimethylaminoethoxyamino)methyl-5β-androstane-14β-ol], the midpoint of inhibition in assay [1], the IC50, lay at 31.6 µM. Moreover, in assay [2] (1 mg/Kg/os daily), the SBP was 153 +/- 6.2 mm Hg and the HR is on record as 367 +/- 14.3 beats/min. Moreover, in assay [2] (10 mg/Kg/os daily), the SBP is reported as 150 +/- 4.2 mm Hg and the HR is recorded as 375 +/- 12.1 beats/min. For the same compound, in assay [3], the “Binding ^3 H-Ouab. Displacement (-log IC50)” value came out at 6.3.

Values taken from patent publication US5599806A, “Hydrazino and hydroxyamino-14-β-hydroxyandrostane derivatives active on the cardiovascular system processes for their preparation and pharmaceutical compositions containing same” (Sigma-Tau Industrie Farmaceutiche Riunite S.p.A., priority 1994, dated 1997).
